How the values were obtained:
c-MER = molecular target: T1, c-MER (Homo sapiens, UniProt Q12866); details: 1 μM; Run 1, Run 2
T1 sequence (Q12866 21-999): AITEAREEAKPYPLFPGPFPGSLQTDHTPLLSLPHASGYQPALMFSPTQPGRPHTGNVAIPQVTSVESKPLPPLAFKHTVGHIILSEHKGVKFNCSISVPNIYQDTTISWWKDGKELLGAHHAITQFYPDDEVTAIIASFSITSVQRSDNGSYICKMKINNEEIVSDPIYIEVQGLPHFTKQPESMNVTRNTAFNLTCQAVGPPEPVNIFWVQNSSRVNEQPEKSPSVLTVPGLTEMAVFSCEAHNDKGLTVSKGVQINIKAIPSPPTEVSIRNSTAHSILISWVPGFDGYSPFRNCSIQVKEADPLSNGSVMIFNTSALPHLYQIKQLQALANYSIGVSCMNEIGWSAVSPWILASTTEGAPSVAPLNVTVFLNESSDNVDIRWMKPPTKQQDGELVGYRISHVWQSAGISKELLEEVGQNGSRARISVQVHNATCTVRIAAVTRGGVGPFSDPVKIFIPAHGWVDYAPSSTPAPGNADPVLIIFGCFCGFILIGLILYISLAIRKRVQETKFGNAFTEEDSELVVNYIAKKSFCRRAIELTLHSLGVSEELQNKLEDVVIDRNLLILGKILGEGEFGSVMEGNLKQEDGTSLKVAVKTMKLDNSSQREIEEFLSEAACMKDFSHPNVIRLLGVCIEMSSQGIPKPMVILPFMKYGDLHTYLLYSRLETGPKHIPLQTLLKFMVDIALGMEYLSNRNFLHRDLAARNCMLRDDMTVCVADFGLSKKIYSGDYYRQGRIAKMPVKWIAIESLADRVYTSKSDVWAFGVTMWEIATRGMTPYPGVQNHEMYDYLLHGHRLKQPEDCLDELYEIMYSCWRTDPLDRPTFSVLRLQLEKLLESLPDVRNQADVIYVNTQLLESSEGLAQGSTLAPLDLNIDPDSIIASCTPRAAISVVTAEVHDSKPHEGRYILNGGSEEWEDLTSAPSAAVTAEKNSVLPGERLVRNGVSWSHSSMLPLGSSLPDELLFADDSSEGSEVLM

CDK14/cyclin Y (PFTK1) = CDK14/cyclin Y (PFTK1) (Homo sapiens, UniProt O94921); experiment: biochemical; details: read-out: % enzyme activity, 1 μM; Run 1, Run 2
CDK14/cyclin Y (PFTK1), sequence (O94921 whole entry): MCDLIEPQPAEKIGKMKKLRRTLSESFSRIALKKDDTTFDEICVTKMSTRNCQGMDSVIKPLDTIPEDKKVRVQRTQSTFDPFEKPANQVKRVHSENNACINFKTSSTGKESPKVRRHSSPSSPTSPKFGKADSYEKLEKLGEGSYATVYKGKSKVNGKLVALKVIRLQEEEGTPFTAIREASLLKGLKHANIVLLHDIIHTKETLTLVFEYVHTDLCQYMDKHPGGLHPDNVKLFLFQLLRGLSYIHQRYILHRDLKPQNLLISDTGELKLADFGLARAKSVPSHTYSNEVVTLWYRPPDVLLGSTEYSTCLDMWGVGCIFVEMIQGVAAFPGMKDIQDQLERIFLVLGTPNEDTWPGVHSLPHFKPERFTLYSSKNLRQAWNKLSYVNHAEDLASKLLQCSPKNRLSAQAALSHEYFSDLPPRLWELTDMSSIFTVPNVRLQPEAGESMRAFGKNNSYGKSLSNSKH
CDK14/cyclin Y (PFTK1), sequence (Q8ND76 whole entry partner): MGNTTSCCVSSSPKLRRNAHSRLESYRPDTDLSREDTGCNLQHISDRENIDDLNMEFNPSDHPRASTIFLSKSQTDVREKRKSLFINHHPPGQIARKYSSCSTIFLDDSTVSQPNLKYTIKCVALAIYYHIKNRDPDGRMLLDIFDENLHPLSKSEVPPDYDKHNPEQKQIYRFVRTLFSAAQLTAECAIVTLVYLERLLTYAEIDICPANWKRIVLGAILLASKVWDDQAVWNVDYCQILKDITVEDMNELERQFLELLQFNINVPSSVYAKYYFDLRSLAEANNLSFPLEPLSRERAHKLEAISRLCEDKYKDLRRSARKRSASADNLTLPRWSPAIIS

MLK4 = MLK4 (Homo sapiens, UniProt Q5TCX8); details: 1 μM; Run 1, Run 2
MLK4, sequence (Q5TCX8 whole entry): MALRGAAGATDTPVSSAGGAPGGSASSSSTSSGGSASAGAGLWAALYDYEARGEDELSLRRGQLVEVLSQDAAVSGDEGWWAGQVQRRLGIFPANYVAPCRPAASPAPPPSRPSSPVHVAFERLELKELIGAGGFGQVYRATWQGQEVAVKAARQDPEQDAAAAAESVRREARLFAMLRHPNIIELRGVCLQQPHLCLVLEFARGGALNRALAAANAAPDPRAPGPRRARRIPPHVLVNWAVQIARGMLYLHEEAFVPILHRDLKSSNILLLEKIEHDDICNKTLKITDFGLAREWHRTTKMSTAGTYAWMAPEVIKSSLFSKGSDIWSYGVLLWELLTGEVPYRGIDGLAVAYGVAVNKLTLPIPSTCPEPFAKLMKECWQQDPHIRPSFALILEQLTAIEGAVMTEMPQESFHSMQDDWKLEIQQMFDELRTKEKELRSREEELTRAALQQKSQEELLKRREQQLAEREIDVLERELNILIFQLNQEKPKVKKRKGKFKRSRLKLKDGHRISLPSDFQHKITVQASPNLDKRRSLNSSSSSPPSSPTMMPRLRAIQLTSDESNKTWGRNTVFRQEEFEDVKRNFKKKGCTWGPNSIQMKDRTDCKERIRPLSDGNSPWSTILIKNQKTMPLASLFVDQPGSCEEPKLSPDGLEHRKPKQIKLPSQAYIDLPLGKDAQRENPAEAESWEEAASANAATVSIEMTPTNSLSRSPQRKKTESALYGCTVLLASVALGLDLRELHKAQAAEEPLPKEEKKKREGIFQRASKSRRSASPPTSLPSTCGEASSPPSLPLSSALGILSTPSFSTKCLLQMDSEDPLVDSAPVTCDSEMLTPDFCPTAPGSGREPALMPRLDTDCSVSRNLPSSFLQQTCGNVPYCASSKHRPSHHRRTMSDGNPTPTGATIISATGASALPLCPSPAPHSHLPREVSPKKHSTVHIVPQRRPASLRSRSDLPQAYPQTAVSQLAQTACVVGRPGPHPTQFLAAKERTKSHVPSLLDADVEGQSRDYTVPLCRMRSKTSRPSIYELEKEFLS

IR = IR (Homo sapiens, UniProt P06213); details: 1 μM; Run 1, Run 2
IR, sequence (P06213 28-1382): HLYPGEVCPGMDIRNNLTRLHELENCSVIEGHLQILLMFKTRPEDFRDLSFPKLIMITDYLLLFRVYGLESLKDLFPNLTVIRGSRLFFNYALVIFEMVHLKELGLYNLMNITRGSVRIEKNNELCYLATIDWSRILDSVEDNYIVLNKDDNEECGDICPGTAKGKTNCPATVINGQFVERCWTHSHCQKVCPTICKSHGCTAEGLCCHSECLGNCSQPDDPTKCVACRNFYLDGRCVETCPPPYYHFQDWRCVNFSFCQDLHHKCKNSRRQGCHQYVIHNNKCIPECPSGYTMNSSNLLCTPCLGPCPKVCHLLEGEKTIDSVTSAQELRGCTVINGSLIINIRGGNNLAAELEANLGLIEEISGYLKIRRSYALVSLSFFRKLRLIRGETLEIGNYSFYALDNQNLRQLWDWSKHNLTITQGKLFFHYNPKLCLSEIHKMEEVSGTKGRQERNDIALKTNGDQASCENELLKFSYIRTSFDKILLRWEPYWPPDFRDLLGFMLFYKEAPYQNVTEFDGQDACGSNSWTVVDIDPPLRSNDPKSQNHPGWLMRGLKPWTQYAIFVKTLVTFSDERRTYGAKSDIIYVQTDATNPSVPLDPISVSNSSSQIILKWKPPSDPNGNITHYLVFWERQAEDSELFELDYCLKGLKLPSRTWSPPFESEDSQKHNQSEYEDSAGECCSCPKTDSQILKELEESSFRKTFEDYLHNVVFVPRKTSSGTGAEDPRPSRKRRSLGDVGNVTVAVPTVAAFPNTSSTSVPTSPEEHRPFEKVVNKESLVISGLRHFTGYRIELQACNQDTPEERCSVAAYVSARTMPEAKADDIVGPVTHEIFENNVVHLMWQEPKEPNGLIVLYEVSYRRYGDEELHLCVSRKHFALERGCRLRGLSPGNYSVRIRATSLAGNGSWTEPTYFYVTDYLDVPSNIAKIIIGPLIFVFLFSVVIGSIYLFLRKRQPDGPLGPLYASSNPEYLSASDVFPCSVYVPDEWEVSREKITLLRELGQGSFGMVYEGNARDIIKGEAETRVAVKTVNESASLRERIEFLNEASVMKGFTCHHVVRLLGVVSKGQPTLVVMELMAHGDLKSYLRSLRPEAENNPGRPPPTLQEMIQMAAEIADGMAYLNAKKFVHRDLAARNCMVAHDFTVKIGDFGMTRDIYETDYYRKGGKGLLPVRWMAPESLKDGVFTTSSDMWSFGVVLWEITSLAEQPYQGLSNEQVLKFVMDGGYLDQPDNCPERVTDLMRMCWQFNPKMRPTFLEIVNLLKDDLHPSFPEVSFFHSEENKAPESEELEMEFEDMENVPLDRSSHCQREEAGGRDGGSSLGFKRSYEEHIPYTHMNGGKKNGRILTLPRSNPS

PDGFRa = PDGFRa (Homo sapiens, UniProt P16234); experiment: biochemical; details: read-out: % enzyme activity, 1 μM; Run 1, Run 2
FGFR1 = FGFR1 (Homo sapiens, UniProt P11362); experiment: biochemical; details: read-out: % enzyme activity, 1 μM; Run 1, Run 2
FGFR1, sequence (P11362 22-822): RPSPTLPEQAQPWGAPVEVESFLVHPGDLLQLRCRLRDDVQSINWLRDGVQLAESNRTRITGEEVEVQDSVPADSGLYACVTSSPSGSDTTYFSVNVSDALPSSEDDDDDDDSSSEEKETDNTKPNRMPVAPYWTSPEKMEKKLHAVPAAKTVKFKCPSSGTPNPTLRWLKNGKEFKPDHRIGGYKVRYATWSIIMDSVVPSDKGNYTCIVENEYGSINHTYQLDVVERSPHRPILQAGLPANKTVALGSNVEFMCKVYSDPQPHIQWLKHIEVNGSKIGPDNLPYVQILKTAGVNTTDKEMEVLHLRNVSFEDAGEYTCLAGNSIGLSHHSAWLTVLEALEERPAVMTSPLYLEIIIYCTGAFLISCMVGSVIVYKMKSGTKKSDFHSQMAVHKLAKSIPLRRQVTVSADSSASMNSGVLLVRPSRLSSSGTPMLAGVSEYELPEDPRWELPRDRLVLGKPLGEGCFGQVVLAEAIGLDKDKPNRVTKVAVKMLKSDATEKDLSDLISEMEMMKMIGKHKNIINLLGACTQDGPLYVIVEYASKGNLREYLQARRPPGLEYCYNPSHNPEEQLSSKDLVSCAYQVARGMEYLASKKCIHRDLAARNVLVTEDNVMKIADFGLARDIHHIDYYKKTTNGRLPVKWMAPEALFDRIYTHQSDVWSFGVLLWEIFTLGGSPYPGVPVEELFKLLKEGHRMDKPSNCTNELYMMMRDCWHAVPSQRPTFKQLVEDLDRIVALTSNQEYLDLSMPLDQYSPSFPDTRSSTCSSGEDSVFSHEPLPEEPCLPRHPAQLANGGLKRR

MYO3b = molecular target: T2, MYO3b (Homo sapiens, UniProt Q8WXR4); experiment: biochemical; details: read-out: % enzyme activity, 1 μM; Run 1, Run 2
T2 sequence (Q8WXR4 1-1341): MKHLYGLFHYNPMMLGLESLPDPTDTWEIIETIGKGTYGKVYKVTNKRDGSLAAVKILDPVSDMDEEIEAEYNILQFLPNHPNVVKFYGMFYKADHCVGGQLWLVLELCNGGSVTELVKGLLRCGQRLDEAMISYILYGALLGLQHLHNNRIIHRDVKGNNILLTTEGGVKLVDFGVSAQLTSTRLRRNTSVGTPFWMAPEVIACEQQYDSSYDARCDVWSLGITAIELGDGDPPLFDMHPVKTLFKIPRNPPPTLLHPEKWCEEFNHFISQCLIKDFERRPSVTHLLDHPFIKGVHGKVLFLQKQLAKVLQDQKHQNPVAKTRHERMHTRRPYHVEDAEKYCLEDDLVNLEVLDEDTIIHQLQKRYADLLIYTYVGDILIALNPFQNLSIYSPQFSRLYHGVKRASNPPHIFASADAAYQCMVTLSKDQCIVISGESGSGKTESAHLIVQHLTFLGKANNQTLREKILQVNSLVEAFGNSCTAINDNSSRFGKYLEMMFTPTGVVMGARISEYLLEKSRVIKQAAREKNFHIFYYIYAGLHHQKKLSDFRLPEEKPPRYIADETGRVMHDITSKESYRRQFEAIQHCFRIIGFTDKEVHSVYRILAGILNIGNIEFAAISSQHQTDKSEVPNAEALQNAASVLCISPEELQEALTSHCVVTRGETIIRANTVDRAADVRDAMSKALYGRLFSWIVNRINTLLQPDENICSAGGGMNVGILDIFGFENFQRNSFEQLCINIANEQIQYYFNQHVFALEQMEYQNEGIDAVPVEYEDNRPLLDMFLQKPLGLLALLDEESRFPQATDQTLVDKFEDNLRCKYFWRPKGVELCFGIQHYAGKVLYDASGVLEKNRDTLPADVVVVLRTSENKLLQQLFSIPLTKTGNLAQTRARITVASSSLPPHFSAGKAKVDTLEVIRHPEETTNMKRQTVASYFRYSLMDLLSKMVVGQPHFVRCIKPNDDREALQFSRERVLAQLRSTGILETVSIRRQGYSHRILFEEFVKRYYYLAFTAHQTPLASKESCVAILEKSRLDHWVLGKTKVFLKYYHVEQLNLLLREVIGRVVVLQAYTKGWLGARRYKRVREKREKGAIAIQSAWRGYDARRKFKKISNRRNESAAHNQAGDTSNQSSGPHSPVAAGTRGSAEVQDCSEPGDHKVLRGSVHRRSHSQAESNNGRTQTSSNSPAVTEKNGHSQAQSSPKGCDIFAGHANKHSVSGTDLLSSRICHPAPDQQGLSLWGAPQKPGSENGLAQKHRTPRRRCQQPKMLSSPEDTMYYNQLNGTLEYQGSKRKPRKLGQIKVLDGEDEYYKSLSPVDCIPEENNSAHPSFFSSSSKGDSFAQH

PKCeta = PKCeta (Homo sapiens, UniProt P24723); experiment: biochemical; details: read-out: % enzyme activity, 1 μM; Run 1, Run 2
PKCeta, sequence (P24723 whole entry): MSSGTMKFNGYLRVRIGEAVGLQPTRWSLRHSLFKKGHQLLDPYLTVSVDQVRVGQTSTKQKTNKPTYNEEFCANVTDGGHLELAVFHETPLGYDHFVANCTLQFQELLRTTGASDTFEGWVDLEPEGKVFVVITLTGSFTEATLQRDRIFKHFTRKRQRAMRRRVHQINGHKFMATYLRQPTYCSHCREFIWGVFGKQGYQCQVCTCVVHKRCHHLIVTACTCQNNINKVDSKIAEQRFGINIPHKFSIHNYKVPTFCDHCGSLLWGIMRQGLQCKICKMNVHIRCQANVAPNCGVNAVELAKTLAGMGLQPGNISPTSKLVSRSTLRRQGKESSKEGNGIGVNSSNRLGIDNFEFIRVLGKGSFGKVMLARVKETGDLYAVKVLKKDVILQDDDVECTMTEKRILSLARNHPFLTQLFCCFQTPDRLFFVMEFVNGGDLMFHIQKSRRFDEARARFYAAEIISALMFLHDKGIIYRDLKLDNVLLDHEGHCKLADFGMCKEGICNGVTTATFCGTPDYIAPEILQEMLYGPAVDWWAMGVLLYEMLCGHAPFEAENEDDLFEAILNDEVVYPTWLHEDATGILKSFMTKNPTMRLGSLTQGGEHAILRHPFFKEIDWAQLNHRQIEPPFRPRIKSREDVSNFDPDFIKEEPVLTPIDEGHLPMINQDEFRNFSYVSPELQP

Aurora C = molecular target: T3, Aurora C (Homo sapiens, UniProt Q9UQB9); experiment: biochemical; details: read-out: % enzyme activity, 1 μM; Run 1, Run 2
T3 sequence (Q9UQB9 1-309): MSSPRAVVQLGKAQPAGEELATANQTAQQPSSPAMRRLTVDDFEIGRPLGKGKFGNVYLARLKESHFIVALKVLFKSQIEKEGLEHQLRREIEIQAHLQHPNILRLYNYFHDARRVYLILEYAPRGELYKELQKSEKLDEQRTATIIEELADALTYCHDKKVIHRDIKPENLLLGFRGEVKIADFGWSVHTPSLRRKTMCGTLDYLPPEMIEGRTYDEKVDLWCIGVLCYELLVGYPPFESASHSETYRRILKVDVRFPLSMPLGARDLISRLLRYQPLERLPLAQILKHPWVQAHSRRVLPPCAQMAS

Row | Structure (SMILES) | % enzyme activity (c-MER) | remaining activity at 1 µM (CDK14/cyclin Y (PFTK1)) | % enzyme activity (MLK4) | % enzyme activity (IR) | remaining activity at 1 µM (PDGFRa) | remaining activity at 1 µM (FGFR1) | remaining activity at 1 µM (MYO3b) | remaining activity at 1 µM (PKCeta) | remaining activity at 1 µM (Aurora C)
1 | COc1cc(-c2cncc(-c3ccc(N4CCN(C)CC4)cc3)c2C)cc(F)c1C(N)=O [Compound 26a, 2-Fluoro-6-methoxy-4-(4-methyl-5-(4-(4-methylpiperazin-1-yl)phenyl)pyridin-3-yl)benzamide] | 99.93% | 98.4% | 95.21% | 100.44% | 82.9% | 97.4% | 81.6% | 94.9% | 105%
2 | COc1cc(-c2cncc(-c3ccc(N4C[C@@H](C)N(C)[C@@H](C)C4)cc3)c2C)cc(F)c1C(N)=O [Compound 26c, 2-Fluoro-6-methoxy-4-(4-methyl-5-(4-((3R,5S)-3,4,5-trimethylpiperazin-1-yl)phenyl)pyridin-3-yl)benzamide] | 96.34% | 99.8% | 93.38% | 97.15% | 81.9% | 101% | 86.5% | 98.3% | 100%
